Patent publication US20170349593A1, “BTK INHIBITORS” (MERCK SHARP & DOHME CORP., priority 2014, published 2017)

Columns and labels:
[1] = target: T1, BTK enzyme (recombinant full-length BTK, hBTK) (Homo sapiens, UniProt Q06187); experiment: Btk enzyme activity assay (LANCE TR-FRET); type: biochemical; conditions: 50 pM hBTK, 25 μM ATP, 60 minute compound and enzyme incubation, concentration range 1 μM to 0.017 nM, read-out: BTK binding IC50
T1 construct: recombinant protein from baculovirus-transfected S 19 cells: full-length BTK, 6 HIS-tag cleaved; 6 HIS-tag (cleaved yes); made in house
T1 sequence (Q06187 whole entry): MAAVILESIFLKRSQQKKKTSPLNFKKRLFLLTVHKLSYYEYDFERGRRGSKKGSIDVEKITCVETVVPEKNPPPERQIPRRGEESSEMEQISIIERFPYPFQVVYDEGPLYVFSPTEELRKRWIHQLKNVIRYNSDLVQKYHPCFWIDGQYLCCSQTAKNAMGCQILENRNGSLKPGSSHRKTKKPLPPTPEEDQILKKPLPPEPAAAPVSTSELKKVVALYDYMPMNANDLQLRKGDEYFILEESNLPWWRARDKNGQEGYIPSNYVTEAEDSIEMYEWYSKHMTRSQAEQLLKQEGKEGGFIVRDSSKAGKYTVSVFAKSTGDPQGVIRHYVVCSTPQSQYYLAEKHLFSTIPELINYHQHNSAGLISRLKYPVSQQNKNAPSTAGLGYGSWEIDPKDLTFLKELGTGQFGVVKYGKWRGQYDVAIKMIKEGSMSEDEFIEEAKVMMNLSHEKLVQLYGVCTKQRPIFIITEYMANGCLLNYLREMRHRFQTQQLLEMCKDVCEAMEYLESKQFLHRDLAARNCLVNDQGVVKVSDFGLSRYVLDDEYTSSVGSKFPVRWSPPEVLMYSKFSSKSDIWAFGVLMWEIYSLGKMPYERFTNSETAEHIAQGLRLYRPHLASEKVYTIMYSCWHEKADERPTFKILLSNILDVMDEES

[2] = tested on: adenosine uptake into HeLa cells; experiment: [3H]Adenosine uptake assay; type: cell-based; conditions: Homo sapiens; accumulation of [3H]adenosine into HeLa cells; concentration range 10 μM to 0.032 nM; read-out: ADU inhibition IC50
In short: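 HeLa cells (25 000/well), plated overnight, were preincubated 30 minutes at ambient temperature with compound in HBSS + 5% FBS. Ten-point titrations ran from 10 μM to 0.032 nM final. [3H]adenosine was added from a 500 nM solution for 60 minutes, and uptake was measured by scintillation proximity counting; IC50 came from a 4-parameter fit.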

| SMILES | IC50 [1] | IC50 [2] |
| --- | --- | --- |
| CCOc1cc(C(=O)Nc2cc(C(F)(F)F)ccn2)ccc1-c1nc([C@H]2CN(C(=O)C3CC3(F)F)[C@@H](C)CO2)n2c(Cl)cnc(N)c12 (stereo partly drawn) [Example 102, 4-(8-amino-5-chloro-3-{(2R,5S)-4-[(2,2-difluorocyclopropyl)carbonyl]-5-methylmorpholin-2-yl}imidazo[1,5-a]pyrazin-1-yl)-3-ethoxy-N-[4-(trifluoromethyl)pyridin-2-yl]benzamide] | 3.12 nM | 5930 nM |
| CCOc1cc(C(=O)Nc2cc(C(F)(F)F)ccn2)ccc1-c1nc([C@H]2CN(C(=O)C3(C#N)CC3)[C@@H](C)CO2)n2c(Cl)cnc(N)c12 [Example 103, 4-(8-amino-5-chloro-3-{(2R,5S)-4-[(1-cyanocyclopropyl)carbonyl]-5-methylmorpholin-2-yl}imidazo[1,5-a]pyrazin-1-yl)-3-ethoxy-N-[4-(trifluoromethyl)pyridin-2-yl]benzamide] | 1.92 nM | 5580 nM |
| CCOc1cc(C(=O)Nc2cc(C(F)(F)F)ccn2)c(F)cc1-c1nc([C@H]2CN(C(=O)C3CC3)[C@@H](C)CO2)n2c(Cl)cnc(N)c12 [Example 105, 4-{8-amino-5-chloro-3-[(2R,5S)-4-(cyclopropylcarbonyl)-5-methylmorpholin-2-yl]imidazo[1,5-a]pyrazin-1-yl}-5-ethoxy-2-fluoro-N-[4-(trifluoromethyl)pyridin-2-yl]benzamide] | 2.52 nM | 5160 nM |
| CCOc1cc(C(=O)Nc2cc(C(F)(F)F)ccn2)ccc1-c1nc([C@H]2CN(C3CCS(=O)(=O)CC3)[C@@H](C)CO2)n2c(Cl)cnc(N)c12 [Example 108, 4-{8-amino-5-chloro-3-[(2R,5S)-4-(1,1-dioxidotetrahydro-2H-thiopyran-4-yl)-5-methylmorpholin-2-yl]imidazo[1,5-a]pyrazin-1-yl}-3-ethoxy-N-[4-(trifluoromethyl)pyridin-2-yl]benzamide] | 1.8 nM | 1320 nM |
| CCOc1cc(C(=O)Nc2cc(C(F)(F)F)n(C)n2)ccc1-c1nc([C@@H]2CC[C@H](C)N(C(=O)[C@@H](C)O)C2)n2ccnc(N)c12 [Example 109, 4-(8-amino-3-{(3R,6S)-1-[(2R)-2-hydroxypropanoyl]-6-methylpiperidin-3-yl}imidazo[1,5-a]pyrazin-1-yl)-3-ethoxy-N-[1-methyl-5-(trifluoromethyl)-1H-pyrazol-3-yl]benzamide] | 0.403 nM | 3340 nM |

Other lines, results leading:

| IC50 [1] | IC50 [2] | SMILES |
| --- | --- | --- |
| 1.33 nM | 6150 nM | CCOc1cc(C(=O)Nc2cc(C(F)(F)F)ccn2)ccc1-c1nc([C@H]2CN(C(=O)CCOC)[C@@H](C)CO2)n2c(Cl)cnc(N)c12 [Example 104, 4-{8-amino-5-chloro-3-[(2R,5S)-4-(3-methoxypropanoyl)-5-methylmorpholin-2-yl]imidazo[1,5-a]pyrazin-1-yl}-3-ethoxy-N-[4-(trifluoromethyl)pyridin-2-yl]benzamide] |
| 4.31 nM | 6250 nM | CCOc1cc(C(=O)Nc2cc(C(F)(F)F)ccn2)ccc1-c1nc([C@H]2CN(C(=O)[C@H](C)O)[C@@H](C)CO2)n2c(F)cnc(N)c12 [Example 106, 4-(8-amino-5-fluoro-3-{(2R,5S)-4-[(2S)-2-hydroxypropanoyl]-5-methylmorpholin-2-yl}imidazo[1,5-a]pyrazin-1-yl)-3-ethoxy-N-[4-(trifluoromethyl)pyridin-2-yl]benzamide] |
| 0.479 nM | 1990 nM | CCOc1cc(C(=O)Nc2cc(C(F)(F)F)ccn2)cc(F)c1-c1nc([C@H]2CN(C(=O)[C@@H](C)O)[C@@H](C)CO2)n2c(Cl)cnc(N)c12 [Example 107, 4-(8-amino-5-chloro-3-{(2R,5S)-4-[(2R)-2-hydroxypropanoyl]-5-methylmorpholin-2-yl}imidazo[1,5-a]pyrazin-1-yl)-3-ethoxy-5-fluoro-N-[4-(trifluoromethyl)pyridin-2-yl]benzamide] |
